The text below walks through data of ChEMBL document CHEMBL1201862, “PubChem BioAssay data set” (2004).

Among the test systems are A498; COLO 205; EKVX; HCT-15; MDA-MB-435; MOLT-4; NCI-H226; NCI-H23; NCI/ADR-RES; RPMI-8226; SK-MEL-2; SK-OV-3; SN12C; SW-620; UACC-257; CCRF-CEM; HOP-62; SR; Hs-578T.
Assay in all cases: NCI anticancer screen, dose series, 48 h

Molecules are shown by their SMILES. Where a name gives a salt, the structure may show the parent alone.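 Five compound concentrations were applied to cells in 96-well plates for 48 hours; endpoints were derived by simple linear interpolation of the resulting dose-response curve. GI50 marks 50% less growth.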 Calls of active or inactive are those of the source. No stated cut-off is given here; in the data, active = GI50 up to about 1.1 µM and inactive = higher.

`Nn1c(CCCCCCCCc2nnc(COc3ccc(Cl)cc3)n2N)nnc1COc1ccc(Cl)cc1`: the GI50 with A498 was 95.1 µM (inactive); in the assay with COLO 205, > 100 µM (inactive); with EKVX, > 100 µM (inactive); with HCT-15 it was more than 100 µM; with MDA-MB-435, > 100 µM (inactive); in the assay with MOLT-4 it was 49.5 µM (inactive). Also, the GI50 in the assay with NCI-H226, in the assay with NCI-H23, in the assay on NCI/ADR-RES, in the assay on RPMI-8226, in the assay with SK-MEL-2 and in the assay on SK-OV-3 was > 100 µM (inactive) each time. In addition, the GI50 with SN12C, in the assay with SW-620 and in the assay on UACC-257 was > 100 µM (inactive) throughout.

On to `O=C(N/N=C/c1cc(Br)ccc1O)N/N=C/c1cc(Br)ccc1O`, for which the GI50 in the assay on A498 was > 100 µM (inactive); in the assay with CCRF-CEM, 1.4 µM (inactive); with COLO 205 it was 4.45 µM (inactive); with EKVX, 4.93 µM (inactive); with HOP-62, 4.46 µM (inactive); with MOLT-4, 1.97 µM (inactive). In addition, the GI50 was 2.02 µM (inactive) in the assay on NCI-H226; 2.31 µM (inactive) with NCI-H23; 69 µM (inactive) in the assay with SK-OV-3; 5.35 µM (inactive) in the assay on SN12C; 3.5 µM (inactive) with SR; 1.73 µM (inactive) in the assay on SW-620. Moreover, in the assay on UACC-257, the GI50 was 4.3 µM (inactive).

With `c1ccc2c(c1)nc1n2CCCn2ccnc2-1`, the GI50 was > 100 µM (inactive) in the assay with A498; > 100 µM (inactive) in the assay on COLO 205; 43 µM (inactive) in the assay on EKVX; 41.1 µM with HCT-15; > 100 µM (inactive) in the assay on HOP-62; > 100 µM (inactive) in the assay with Hs-578T. The GI50 in the assay with MOLT-4 was > 100 µM (inactive); in the assay with NCI-H226, 68.7 µM (inactive); in the assay with NCI-H23, > 100 µM (inactive); in the assay with NCI/ADR-RES, 27 µM (inactive); with RPMI-8226, > 100 µM (inactive); with SK-MEL-2 it was > 100 µM (inactive). The GI50 is 0.0137 µM (active) in the assay on SK-OV-3, > 100 µM (inactive) with SN12C, > 100 µM (inactive) in the assay on SR and > 100 µM (inactive) in the assay on SW-620.

Consider `Cc1ccc(Cl)c2c(=O)c3ccc(N)cc3sc12`, for which the GI50 is 17 µM (inactive) in the assay on A498; 14.7 µM (inactive) in the assay with CCRF-CEM; 16.6 µM (inactive) in the assay on COLO 205; 5.55 µM (inactive) with EKVX; 21.1 µM in the assay on HCT-15; 19.7 µM (inactive) in the assay on HOP-62. Also, the GI50 was 10.4 µM (inactive) in the assay with Hs-578T; 11.7 µM (inactive) with MOLT-4; 17.3 µM (inactive) with NCI-H226; 23.9 µM (inactive) with NCI-H23; 15.1 µM (inactive) in the assay with NCI/ADR-RES; 15 µM (inactive) in the assay on RPMI-8226. Also, the GI50 was 20.1 µM (inactive) in the assay with SK-MEL-2, 15.7 µM (inactive) in the assay on SN12C and 25.8 µM (inactive) in the assay with UACC-257.

As to `COc1ccc(/C=N\N2C(=O)Cc3ccccc32)cc1`, the GI50 is > 100 µM (inactive) with A498; > 100 µM (inactive) with CCRF-CEM; > 100 µM (inactive) with COLO 205; > 100 µM (inactive) in the assay with EKVX; more than 100 µM with HCT-15; 64.1 µM (inactive) in the assay on HOP-62. Further, the GI50 was 41.4 µM (inactive) in the assay on MOLT-4; > 100 µM (inactive) with NCI-H226; > 100 µM (inactive) with NCI-H23; > 100 µM (inactive) in the assay on RPMI-8226; > 100 µM (inactive) with SK-MEL-2; > 100 µM (inactive) in the assay with SK-OV-3. Further, the GI50 in the assay on SW-620 and in the assay with UACC-257 was > 100 µM (inactive) each time.

For `Cc1ccc(-c2c(C#N)c(-c3ccccc3)n(NS(=O)(=O)c3ccc(C)cc3)c(=O)c2C#N)cc1`, the GI50 was 52.8 µM (inactive) in the assay with A498; 23 µM (inactive) in the assay on CCRF-CEM; > 100 µM (inactive) in the assay on COLO 205; 89.9 µM (inactive) in the assay on EKVX; 36.4 µM with HCT-15; 41.9 µM (inactive) in the assay with HOP-62. Besides, the GI50 was 61.7 µM (inactive) in the assay with MDA-MB-435; 19.8 µM (inactive) in the assay with MOLT-4; 74.3 µM (inactive) in the assay on NCI-H226; 96.4 µM (inactive) in the assay on NCI/ADR-RES; 8.36 µM (inactive) in the assay on RPMI-8226; 35.8 µM (inactive) in the assay with SK-MEL-2. In addition, the GI50 with SK-OV-3 was 96.6 µM (inactive); with SN12C it was 82.6 µM (inactive); with SW-620, 40.6 µM (inactive); with UACC-257, > 100 µM (inactive).

On to `Cc1nn(-c2ccccc2)c2nc3c(c(C)nn3-c3ccccc3)c(-c3ccccc3Br)c12`, for which the GI50 in the assay on A498 is > 100 µM (inactive); in the assay on CCRF-CEM, > 100 µM (inactive); with COLO 205, > 100 µM (inactive); in the assay on EKVX, > 100 µM (inactive); in the assay on HCT-15, more than 100 µM; with HOP-62, > 100 µM (inactive). Moreover, the GI50 with MDA-MB-435, with MOLT-4, with NCI-H226, with NCI-H23, in the assay with NCI/ADR-RES and in the assay on RPMI-8226 was > 100 µM (inactive) each time. The GI50 in the assay on SK-OV-3, in the assay with SN12C, with SR, in the assay with SW-620 and with UACC-257 was > 100 µM (inactive) each time.

For the compound `O=S(=O)(c1ccc(/N=N/O)nc1)c1ccc2ccccc2c1`, the GI50 with A498 is > 100 µM (inactive); with CCRF-CEM it was 29.3 µM (inactive); in the assay on COLO 205 it was 97.3 µM (inactive); with EKVX it was > 100 µM (inactive); in the assay with HCT-15, more than 100 µM; with HOP-62, > 100 µM (inactive). Further, the GI50 in the assay on Hs-578T is > 100 µM (inactive); with MOLT-4, > 10 µM (inactive); in the assay with NCI-H226 it was > 100 µM (inactive); in the assay with NCI-H23, 65.9 µM (inactive); in the assay with NCI/ADR-RES it was > 100 µM (inactive); with SK-MEL-2, > 100 µM (inactive). Moreover, the GI50 is > 100 µM (inactive) in the assay with SK-OV-3; 95.5 µM (inactive) in the assay with SN12C; > 100 µM (inactive) with SR; > 100 µM (inactive) in the assay on SW-620; > 100 µM (inactive) in the assay on UACC-257.

Turning to `NCCc1cc(O)c(O)cc1O` [OXIDOPAMINE HYDROCHLORIDE], the GI50 was > 100 µM (inactive) with A498; 3.97 µM (inactive) in the assay on CCRF-CEM; 41.9 µM (inactive) in the assay on COLO 205; 26.6 µM (inactive) in the assay on EKVX; 17.1 µM in the assay with HCT-15; 22.9 µM (inactive) in the assay with HOP-62. Further, the GI50 was 18.9 µM (inactive) in the assay with MDA-MB-435; 21.8 µM (inactive) in the assay with MOLT-4; 34.4 µM (inactive) with NCI/ADR-RES; 3.19 µM (inactive) in the assay with RPMI-8226; 43.5 µM (inactive) with SK-MEL-2; > 100 µM (inactive) with SK-OV-3. Further, the GI50 with SN12C is 25.3 µM (inactive); in the assay on SR it was 0.619 µM (active); in the assay with SW-620, 21 µM (inactive); in the assay with UACC-257, 20.4 µM (inactive).
